Assay results published in patent US9034855B2, “Substituted phenylacetate and phenylpropane amides and use thereof” (Bayer Intellectual Property GmbH, priority 2010, dated 2015).

What was measured:
[1] = molecular target: T1, human V1a receptor (Homo sapiens, UniProt P37288); test: Cellular in vitro assay for determining the vasopressin receptor activity (aequorin luminescence, recombinant CHO cells), human V1a; type: cell-based; details: CHO cells expressing aequorin, transfected with human V1a receptor; agonist [Arg8]-vasopressin; read-out: IC50 hV1a
T1 construct: expressed in transfected cells; host or cells: CHO K1 (ATCC), constitutively expressing modified aequorin
T1 sequence (P37288 whole entry): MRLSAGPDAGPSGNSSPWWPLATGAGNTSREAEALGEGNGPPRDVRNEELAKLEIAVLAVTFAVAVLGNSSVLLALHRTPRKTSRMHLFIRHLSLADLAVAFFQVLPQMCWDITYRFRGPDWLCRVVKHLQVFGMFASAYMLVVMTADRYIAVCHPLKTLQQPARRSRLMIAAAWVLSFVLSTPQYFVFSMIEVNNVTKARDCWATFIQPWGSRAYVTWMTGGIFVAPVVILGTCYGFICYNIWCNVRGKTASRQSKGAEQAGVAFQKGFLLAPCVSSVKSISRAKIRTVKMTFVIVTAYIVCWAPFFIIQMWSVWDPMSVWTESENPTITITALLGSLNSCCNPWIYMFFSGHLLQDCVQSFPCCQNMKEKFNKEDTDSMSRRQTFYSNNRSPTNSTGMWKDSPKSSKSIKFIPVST
Description: (§1) B-1. Cellular In Vitro Assay for Determining the Vasopressin Receptor Activity
(§2) The identification of agonists and antagonists of the V1a and V2 vasopressin receptors from humans and rats and also the quantification of the activity of the substances described here takes place using recombinant cell lines. These cells derive originally from a hamster's ovary epithelial cell (Chinese Hamster Ovary, CHO K1, ATCC: American Type Culture Collection, Manassas, Va. 20108, USA). The test cell lines constitutively express a modified form of the calcium-sensitive photoprotein aequorin, which, after reconstitution with the cofactor coelenterazine, emits light when there are increases in the free calcium concentration (Rizzuto R., Simpson A. W., Brini M., Pozzan T.; Nature 358 (1992) 325-327). In addition, the cells are stably transfected with the human or rat V1a or V2 receptors. In the case of the Gs-coupling V2 receptors, the cells are stably transfected with a further gene, which codes for the promiscuous Gα16 protein (Amatruda T. T., Steele D. A., Slepak V. Z., Simon M A., Proc. Na. Acad. Sci. USA 88 (1991), 5587-5591), either independently or as a fusion gene. The resulting vasopressin receptor test cells react to stimulation of the recombinantly expressed vasopressin receptors by intracellular release of calcium ions, which can be quantified by the resulting aequorin luminescence using a suitable luminometer (Milligan G., Marshall F., Rees S., Trends in Pharmaco. Sci. 17 (1996) 235-237).
(§3) On the day before the assay, the cells are plated out in culture medium (DMEM, 10% FCS, 2 mM glutamine, 10 mM HEPES) in 384-well microtiter plates and kept in a cell incubator (96% atmospheric humidity, 5% v/v carbon dioxide, 37° C.). On the day of the assay, the culture medium is replaced by a Tyrode solution (140 mM sodium chloride, 5 mM potassium chloride, 1 mM magnesium chloride, 2 mM calcium chloride, 20 mM glucose, 20 mM HEPES), which additionally contains the cofactor coelenterazine (50 μM), and the microtiter plate is then incubated for a further 3-4 hours. The test substances in various concentrations are placed for 10 to 20 minutes in the wells of the microtiter plate before the agonist [Arg8]-vasopressin is added, and the resulting light signal is measured immediately in the luminometer. The IC50 values are calculated using the GraphPad PRISM computer program (Version 3.02).
(§4) Table A below lists representative IC50 values for the compounds according to the invention transfected with the human V1a or V2 receptor: […]

[2] = molecular target: T2, human V2 receptor (Homo sapiens, UniProt P30518); test: Cellular in vitro assay for determining the vasopressin receptor activity (aequorin luminescence, recombinant CHO cells), human V2; type: cell-based; details: CHO cells expressing aequorin and Gα16, transfected with human V2 receptor; agonist [Arg8]-vasopressin; read-out: IC50 hV2
T2 construct: expressed in transfected cells; host or cells: CHO K1 (ATCC), constitutively expressing modified aequorin, co-transfected with promiscuous G-alpha-16
T2 sequence (P30518 whole entry): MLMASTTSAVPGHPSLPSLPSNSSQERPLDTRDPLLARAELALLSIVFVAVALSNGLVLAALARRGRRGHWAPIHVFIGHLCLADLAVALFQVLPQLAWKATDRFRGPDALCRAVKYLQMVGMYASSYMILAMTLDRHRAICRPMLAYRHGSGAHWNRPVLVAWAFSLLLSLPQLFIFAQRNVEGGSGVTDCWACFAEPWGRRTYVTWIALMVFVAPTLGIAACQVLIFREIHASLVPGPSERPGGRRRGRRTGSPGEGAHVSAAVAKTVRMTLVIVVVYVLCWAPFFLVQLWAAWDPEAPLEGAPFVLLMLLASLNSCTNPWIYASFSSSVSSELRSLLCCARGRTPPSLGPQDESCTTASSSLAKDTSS
Description: as §1, §2, §3, §4

| SMILES | IC50 [1] | IC50 [2] |
| --- | --- | --- |
| O=C(O)CCNC(=O)C(NC(=O)Cn1nc(-c2ccc(Cl)cc2)n(C2CC2)c1=O)c1cccc(C(F)(F)F)c1 (racemic) [Example 16, N-{({[3-(4-Chlorophenyl)-4-cyclopropyl-5-oxo-4,5-dihydro-1H-1,2,4-triazol-1-yl]acetyl}amino) [3-(trifluoromethyl)phenyl]acetyl}-beta-alanine] | 524 nM | 262 nM |
| O=C(O)CCNC(=O)C(NC(=O)Cn1nc(-c2ccc(Cl)cc2)n(C[C@H](O)C(F)(F)F)c1=O)c1cccc(C(F)(F)F)c1 (stereo partly drawn) [Example 14, N-{[({3-(4-Chlorophenyl)-5-oxo-4-[(2S)-3,3,3-trifluoro-2-hydroxypropyl]-4,5-dihydro-1H-1,2,4-triazol-1-yl}acetyl)amino][3-(trifluoromethyl)phenyl]acetyl}-beta-alanine] | 53 nM | 9 nM |
| COC(=O)C(C)(C)NC(=O)C[C@H](NC(=O)Cn1nc(-c2ccc(Cl)cc2)n(C[C@H](O)C(F)(F)F)c1=O)c1cccc(C(F)(F)F)c1 [Example 38, Methyl N-{(3S)-3-[({3-(4-chlorophenyl)-5-oxo-4-[(2S)-3,3,3-trifluoro-2-hydroxypropyl]-4,5-dihydro-1H-1,2,4-triazol-1-yl}acetyl)amino]-3-[3-(trifluoromethyl)phenyl]propanoyl}-2-methylalaninate] | 32.8 nM | 38.6 nM |
| CC(C)(NC(=O)C(NC(=O)Cn1nc(-c2ccc(Cl)cc2)n(C[C@H](O)C(F)(F)F)c1=O)c1cccc(C(F)(F)F)c1)C(=O)O (single isomer, unassigned) [Example 25] | 502 nM | 282 nM |
| NC(=O)CCNC(=O)C(NC(=O)Cn1nc(-c2ccc(Cl)cc2)n(C[C@H](O)C(F)(F)F)c1=O)c1cccc(C(F)(F)F)c1 (single isomer, unassigned) [Example 17] | 1420 nM | 22 nM |
| COCCn1c(-c2ccc(Cl)s2)nn(CC(=O)NC(C(=O)NC(C)(C)CO)c2cccc(C(F)(F)F)c2)c1=O (single isomer, unassigned) [Example 43, 2-({[3-(5-Chloro-2-thienyl)-4-(2-methoxyethyl)-5-oxo-4,5-dihydro-1H-1,2,4-triazol-1-yl]acetyl}amino)-N-(1-hydroxy-2-methylpropan-2-yl)-2-[3-(trifluoromethyl)phenyl]acetamide] | 60 nM | 1600 nM |
| O=C(Cn1nc(-c2ccc(Cl)cc2)n(C[C@H](O)C(F)(F)F)c1=O)NC(C(=O)NCCOC(F)(F)F)c1cccc(C(F)(F)F)c1 (single isomer, unassigned) [Example 59] | 136 nM | 61 nM |
| CC(C)(CO)NC(=O)C(NC(=O)Cn1nc(-c2ccc(Cl)cc2)n(C[C@H](O)C(F)(F)F)c1=O)c1cccc(C(F)(F)F)c1 (single isomer, unassigned) [Example 42] | 38 nM | 158 nM |
| O=C(Cn1nc(-c2ccc(Cl)cc2)n(C[C@H](O)C(F)(F)F)c1=O)NC(C(=O)NC1(C(=O)O)CC1)c1cccc(C(F)(F)F)c1 (single isomer, unassigned) [Example 3] | 554 nM | 467 nM |

Now those with a lower IC50 [1], led by results:

| IC50 [1] | IC50 [2] | SMILES |
| --- | --- | --- |
| 0.6 nM | 1.1 nM | C[C@](NC(=O)Cn1nc(-c2ccc(Cl)cc2)n(C[C@H](O)C(F)(F)F)c1=O)(C(=O)NCCC(N)=O)c1cccc(C(F)(F)F)c1 [Example 19, N^3-{(2R)-2-[({3-(4-Chlorophenyl)-5-oxo-4-[(2S)-3,3,3-trifluoro-2-hydroxypropyl]-4,5-dihydro-1H-1,2,4-triazol-1-yl}acetyl)amino]-2-[3-(trifluoromethyl)phenyl]propanoyl}-beta-alaninamide] |
| 4.9 nM | 0.8 nM | CC(C)(NC(=O)C[C@H](NC(=O)Cn1nc(-c2ccc(Cl)cc2)n(C[C@H](O)C(F)(F)F)c1=O)c1cccc(C(F)(F)F)c1)C(=O)O [Example 39, N-{(3S)-3-[({3-(4-Chlorophenyl)-5-oxo-4-[(2S)-3,3,3-trifluoro-2-hydroxypropyl]-4,5-dihydro-1H-1,2,4-triazol-1-yl}acetyl)amino]-3-[3-(trifluoromethyl)phenyl]propanoyl}-2-methylalanine] |
| 11.1 nM | 8.1 nM | CC(C)(NC(=O)C[C@H](NC(=O)Cn1nc(-c2ccc(Cl)cc2)n(C[C@H](O)C(F)(F)F)c1=O)c1cccc(C(F)(F)F)c1)C(N)=O [Example 40, N^2-{(3S)-3-[({3-(4-Chlorophenyl)-5-oxo-4-[(2S)-3,3,3-trifluoro-2-hydroxypropyl]-4,5-dihydro-1H-1,2,4-triazol-1-yl}acetyl)amino]-3-[3-(trifluoromethyl)phenyl]propanoyl}-2-methylalaninamide] |
| 8.9 nM | 655 nM | CC(C)(NC(=O)C(NC(=O)Cn1nc(-c2ccc(Cl)cc2)n(CCC(F)(F)F)c1=O)c1ccccc1Cl)C(N)=O (racemic) [Example 35, N^2-[(2-Chlorophenyl)({[3-(4-chlorophenyl)-5-oxo-4-(3,3,3-trifluoropropyl)-4,5-dihydro-1H-1,2,4-triazol-1-yl]acetyl}amino)acetyl]-2-methylalaninamide] |
| 24 nM | 182 nM | CC(C)(NC(=O)C(NC(=O)Cn1nc(-c2ccc(Cl)cc2)n(C2CC2)c1=O)c1cccc(C(F)(F)F)c1)C(=O)O (racemic) [Example 12, N-{({[3-(4-Chlorophenyl)-4-cyclopropyl-5-oxo-4,5-dihydro-1H-1,2,4-triazol-1-yl]acetyl}amino) [3-(trifluoromethyl)phenyl]acetyl}-2-methylalanine] |
| 3.5 nM | 136 nM | COCCNC(=O)C[C@H](NC(=O)Cn1nc(-c2ccc(Cl)cc2)n(C[C@H](O)C(F)(F)F)c1=O)c1ccccc1C(F)(F)F [Example 58, (3S)-3-[({3-(4-Chlorophenyl)-5-oxo-4-[(2S)-3,3,3-trifluoro-2-hydroxypropyl]-4,5-dihydro-1H-1,2,4-triazol-1-yl}acetyl)amino]-N-(2-methoxyethyl)-3-[2-(trifluoromethyl)phenyl]propanamide] |
| 3 nM | 19.7 nM | O=C(Cn1nc(-c2ccc(Cl)cc2)n(C[C@H](O)C(F)(F)F)c1=O)NC(C(=O)NCCOC(F)(F)F)c1cccc(C(F)(F)F)c1 (single isomer, unassigned) [Example 60] |
| 2.4 nM | 4.5 nM | COC(=O)C(C)(C)NC(=O)[C@](C)(NC(=O)Cn1nc(-c2ccc(Cl)cc2)n(C[C@H](O)C(F)(F)F)c1=O)c1cccc(C(F)(F)F)c1 [Example 20, Methyl N-{(2R)-2-[({3-(4-chlorophenyl)-5-oxo-4-[(2S)-3,3,3-trifluoro-2-hydroxypropyl]-4,5-dihydro-1H-1,2,4-triazol-1-yl}acetyl)amino]-2-[3-(trifluoromethyl)phenyl]propanoyl}-2-methylalaninate] |
| 14.5 nM | 7.4 nM | COCCNC(=O)C[C@H](NC(=O)Cn1nc(-c2ccc(Cl)cc2)n(C[C@H](O)C(F)(F)F)c1=O)c1cccc(C(F)(F)F)c1 [Example 57, (3S)-3-[({3-(4-Chlorophenyl)-5-oxo-4-[(2S)-3,3,3-trifluoro-2-hydroxypropyl]-4,5-dihydro-1H-1,2,4-triazol-1-yl}acetyl)amino]-N-(2-methoxyethyl)-3-[3-(trifluoromethyl)phenyl]propanamide] |
| 1.9 nM | 4.1 nM | O=C(Cn1nc(-c2ccc(Cl)cc2)n(C[C@H](O)C(F)(F)F)c1=O)NC(C(=O)NC1(C(=O)O)CC1)c1cccc(C(F)(F)F)c1 (single isomer, unassigned) [Example 4] |
| 17 nM | 1050 nM | CC(C)(NC(=O)C(NC(=O)Cn1nc(-c2ccc(Cl)cc2)n(Cc2ccccc2F)c1=O)c1ccccc1Cl)C(N)=O (racemic) [Example 33, N^2-[(2-Chlorophenyl)({[3-(4-chlorophenyl)-4-(2-fluorobenzyl)-5-oxo-4,5-dihydro-1H-1,2,4-triazol-1-yl]acetyl}amino)acetyl]-2-methylalaninamide] |
| 1.2 nM | 1.9 nM | NC(=O)CCNC(=O)C(NC(=O)Cn1nc(-c2ccc(Cl)cc2)n(C[C@H](O)C(F)(F)F)c1=O)c1cccc(C(F)(F)F)c1 (single isomer, unassigned) [Example 18] |
| 1.7 nM | 2.3 nM | CC(C)(NC(=O)C(NC(=O)Cn1nc(-c2ccc(Cl)cc2)n(C[C@H](O)C(F)(F)F)c1=O)c1cccc(C(F)(F)F)c1)C(=O)O (single isomer, unassigned) [Example 26] |
